Results: patent US8648066B2 (Exelixis, Inc., priority 2009, dated 2014)

Molecular target: mTOR/GbL/Raptor (mTORC1) (Homo sapiens, UniProt P42345)
Experiment: mTOR/GbL/Raptor (mTORC1) ELISA assay
Format: biochemical
Conditions: phosphorylation of 4E-BP1; 0.2 nM mTORC1, 10 μM ATP; read-out: IC50 in this assay (mTORC1 ELISA)
Outline: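 Human mTORC1 (0.2 nM) phosphorylated 50 nM His-tagged 4E-BP1 with 10 µM ATP in HEPES pH 7.2 containing 10 mM MnCl2, 120 min at ambient temperature. Substrate was captured on Ni-chelate plates; phospho-4E-BP1 was detected by primary antibody and HRP secondary with luminescence.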

| Compound | IC50 [nM] |
| --- | --- |
| CC1(C)CCc2ncnc(N3CCOc4ccc(-c5cnc(N)c(S(=O)(=O)NC[C@H]6CCCN6)c5)cc4C3)c2C1 [Example 382, 2-amino-5-[4-(6,6-dimethyl-5,6,7,8-tetrahydrquinazolin-4-yl)-2,3,4,5-tetrahydro-1,4-benzoxazepin-7-yl]-N-[(2R)-pyrrolidin-2-ylmethyl]pyridine-3-sulfonamide] | 10 to 50 |
| COc1c(OCc2ccc3ccccc3n2)ccc2c(N3CCOc4ccc(-c5ccc6nc(C)[nH]c6c5)cc4C3)ncnc12 [Example 167, 7-(2-methyl-1H-benzimidazol-6-yl)-4-{8-(methyloxy)-7-[(quinolin-2-ylmethyl)oxy]quinazolin-4-yl}-2,3,4,5-tetrahydro-1,4-benzoxazepine] | ≥ 2000 |
| COC(=O)Nc1nc2ccc(-c3ccc4c(c3)CN(c3ncnc(C)c3Cc3ccc(F)cc3)CCO4)cc2[nH]1 [Example 113, methyl [6-(4-{5-[(4-fluorophenyl)methyl]-6-methylpyrimidin-4-yl}-2,3,4,5-tetrahydro-1,4-benzoxazepin-7-yl)-1H-benzimidazol-2-yl]carbamate] | 10 to 50 |
| COC1Cc2nc(CN(C)C)nc(N3CCOc4ccc(-c5cnc6nc(C)[nH]c6c5)cc4C3)c2CC1(C)C (centres unmarked) [Example 355, 1-{6,6-dimethyl-4-[7-(2-methyl-1H-imidazo[4,5-b]pyridin-6-yl)-2,3-dihydro-1,4-benzoxazepin-4(5H)-yl]-7-(methyloxy)-5,6,7,8-tetrahydroquinazolin-2-yl}-N,N-dimethylmethanamine] | 50 to 250 |
| CC[C@H]1CCc2c(ncnc2N2CCOc3ccc(-c4cnc(N)c(S(=O)(=O)N5C[C@@H]6C[C@H]5CN6)c4)cc3C2)C1 [Example 437, 3-[(1S,4S)-2,5-diazabicyclo[2.2.1]hept-2-ylsulfonyl]-5-{4-[(7S)-7-ethyl-5,6,7,8-tetrahydroquinazolin-4-yl]-2,3,4,5-tetrahydro-1,4-benzoxazepin-7-yl}pyridin-2-amine] | 10 to 50 |
| CC1(C)CCc2ncnc(N3CCOc4ccc(-c5cnc(N)c(S(=O)(=O)NCC6CCCNC6)c5)cc4C3)c2C1 (centres unmarked) [Example 377, 2-amino-5-[4-(6,6-dimethyl-5,6,7,8-tetrahydroquinazolin-4-yl)-2,3,4,5-tetrahydro-1,4-benzoxazepin-7-yl]-N-(piperidin-3-ylmethyl)pyridine-3-sulfonamide] | 50 to 250 |
| CC1(C)CCc2ncnc(N3CCOc4ccc(-c5cnc(N)c(S(C)(=O)=O)c5)cc4C3)c2C1 [Example 512, 5-[4-(6,6-dimethyl-5,6,7,8-tetrahydroquinazolin-4-yl)-2,3,4,5-tetrahydro-1,4-benzoxazepin-7-yl]-3-(methylsulfonyl)pyridin-2-amine] | 10 to 50 |
| CC1(C)CCc2ncnc(N3CCOc4ccc(-c5cnc(N)c(S(=O)(=O)NCCN)c5)cc4C3)c2C1 [Example 409, 2-amino-N-(2-aminoethyl)-5-[4-(6,6-dimethyl-5,6,7,8-tetrahydroquinazolin-4-yl)-2,3,4,5-tetrahydro-1,4-benzoxazepin-7-yl]pyridine-3-sulfonamide] | ≤ 10 |
| CC1(C)CCc2ncnc(N3CCOc4ccc(-c5cnc(N6CC[C@H](N)C6)c(S(=O)(=O)N6CC[C@H](N)C6)c5)cc4C3)c2C1 [Example 306, (3S)-1-({2-[(3S)-3-aminopyrrolidin-1-yl]-5-[4-(6,6-dimethyl-5,6,7,8-tetrahydroquinazolin-4-yl)-2,3,4,5-tetrahydro-1,4-benzoxazepin-7-yl]pyridin-3-yl}sulfonyl)pyrrolidin-3-amine] | 250 to 1000 |
| CC1(C)CCc2ncnc(N3CCOc4ccc(-c5cnc(N)c(S(=O)(=O)NC6CCC6)c5)cc4C3)c2C1 [Example 427, 2-amino-N-cyclobutyl-5-[4-(6,6-dimethyl-5,6,7,8-tetrahydroquinazolin-4-yl)-2,3,4,5-tetrahydro-1,4-benzoxazepin-7-yl]pyridine-3-sulfonamide] | 50 to 250 |
| Cc1nc2cc(-c3ccc4c(c3)CN(c3ncnc5c3CC3(CC5)CC3)CCO4)cnc2[nH]1 [Example 502] | ≤ 10 |
| COc1c(OCC(C)C)ccc2c(N3CCOc4ccc(-c5ccc6nc(C)[nH]c6c5)cc4C3)ncnc12 [Example 166, 7-(2-methyl-1H-benzimidazol-6-yl)-4-{8-(methyloxy)-7-[(2-methylpropyl)oxy]quinazolin-4-yl}-2,3,4,5-tetrahydro-1,4-benzoxazepine] | 250 to 1000 |
| CCNc1nc2ccc(-c3ccc4c(c3)CN(c3ncnc(Nc5ccccc5)c3C)CCO4)cc2[nH]1 [Example 287, N-ethyl-6-{4-[5-methyl-6-(phenylamino)pyrimidin-4-yl]-2,3,4,5-tetrahydro-1,4-benzoxazepin-7-yl}-1H-benzimidazol-2-amine] | 50 to 250 |
| CC[C@H]1CCc2c(ncnc2N2CCOc3ccc(-c4cnc5nc([C@@H](C)N)[nH]c5c4)cc3C2)C1 [Example 297, (1R)-1-(6-{4-[(7S)-7-ethyl-5,6,7,8-tetrahydroquinazolin-4-yl]-2,3,4,5-tetrahydro-1,4-benzoxazepin-7-yl}-1H-imidazo[4,5-b]pyridin-2-yl)ethanamine] | 50 to 250 |
| CC1(C)CCc2ncnc(N3CCOc4ccc(-c5cnc(N)c(S(=O)(=O)NC6CC7CCC(C6)N7)c5)cc4C3)c2C1 (centres unmarked) [Example 425, 2-amino-N-8-azabicyclo[3.2.1]oct-3-yl-5-[4-(6,6-dimethyl-5,6,7,8-tetrahydroquinazolin-4-yl)-2,3,4,5-tetrahydro-1,4-benzoxazepin-7-yl]pyridine-3-sulfonamide] | 10 to 50 |
| Cc1ncnc(N2CCOc3ccc(-c4cncs4)cc3C2)c1Cc1ccc(F)cc1 [Example 150, 4-{5-[(4-fluorrophenyl)methyl]-6-methylpyrimidin-4-yl}-7-(1,3-thiazol-5-yl)-2,3,4,5-tetrahydro-1,4-benzoxazepine] | 50 to 250 |
| CN(C)Cc1nc2c(c(N3CCOc4ccc(-c5ccc(-c6ncc[nH]6)cc5)cc4C3)n1)CC(C)(C)CC2 [Example 325] | ≤ 10 |
| Cc1nc2ncc(-c3ccc4c(c3)CN(c3ncnc5c3CCC(CO)C5)CCO4)cc2[nH]1 (centres unmarked) [Example 309, {4-[7-(2-methyl-1H-imidazo[4,5-b]pyridin-6-yl)-2,3-dihydro-1,4-benzoxazepin-4(5H)-yl]-5,6,7,8-tetrahydroquinazolin-7-yl}methanol] | 50 to 250 |
| Cc1ncnc(N2CCOc3ccc(-c4ccc5sc(N)nc5c4)cc3C2)c1Cc1ccc(F)cc1 [Example 148, 5-(4-{5-[(4-fluorophenyl)methyl]-6-methylpyrimidin-4-yl}-2,3,4,5-tetrahydro-1,4-benzoxazepin-7-yl)-1,3-benzothiazol-2-amine] | ≤ 10 |
| Cc1nc(N2CCOc3ccc(-c4ccc(-c5ncc[nH]5)cc4)cc3C2)c2ccccc2n1 [Example 251, 7-[4-(1H-imidazol-2-yl)phenyl]-4-(2-methylquinazolin-4-yl)-2,3,4,5-tetrahydro-1,4-benzoxazepine] | 10 to 50 |

Next, values leading:

| IC50 [nM] | Compound |
| --- | --- |
| 10 to 50 | COCCNCc1nc2c(c(N3CCOc4ccc(-c5ccc6nc(C)[nH]c6c5)cc4C3)n1)CC(C)(C)CC2 [Example 585, N-({6,6-dimethyl-4-[7-(2-methyl-1H-benzimidazol-6-yl)-2,3-dihydro-1,4-benzoxazepin-4(5H)-yl]-5,6,7,8-tetrahydroquinazolin-2-yl}methyl)-2-(methyloxy)ethanamine] |
| 50 to 250 | COC(=O)Nc1nc2ncc(-c3ccc4c(c3)CN(c3nc(CN(C)C)nc5c3CC(C)(C)CC5)CCO4)cc2[nH]1 [Example 580] |
| 50 to 250 | C[C@H]1CCc2c(ncnc2N2CCOc3ccc(-c4cnc5nc(C6CC6)[nH]c5c4)cc3C2)C1 [Example 546, 7-(2-cyclopropyl-1H-imidazo[4,5-b]pyridin-6-yl)-4-[(7S)-7-methyl-5,6,7,8-tetrahydroquinazolin-4-yl]-2,3,4,5-tetrahydro-1,4-benzoxazepine] |
| 10 to 50 | CCN(CC)Cc1nc2c(c(N3CCOc4ccc(-c5cnc6nc(C)[nH]c6c5)cc4C3)n1)CC(C)(C)CC2 [Example 602, N-({6,6-dimethyl-4-[7-(2-methyl-1H-imidazo[4,5-b]pyridin-6-yl)-2,3-dihydro-1,4-benzoxazepin-4(5H)-yl]-5,6,7,8-tetrahydroquinazolin-2-yl}methyl)-N-ethylethanamine] |
| ≤ 10 | CC1(C)CCc2ncnc(N3CCOc4ccc(-c5cnc(N)c(S(=O)(=O)N6CCNCC6)c5)cc4C3)c2C1 [Example 514, 5-[4-(6,6-dimethyl-5,6,7,8-tetrahydroquinazolin-4-yl)-2,3,4,5-tetrahydro-1,4-benzoxazepin-7-yl]-3-(piperazin-1-ylsulfonyl)puridin-2-amine] |
| 50 to 250 | COc1ccc2c(N3CCOc4ccc(-c5ccc6nc(N)[nH]c6c5)cc4C3)nc(C)nc2c1 [Example 539, 6-{4-[2-methyl-7-(methyloxy)quinazolin-4-yl]-2,3,4,5-tetrahydro-1,4-benzoxazepin-7-yl}-1H-benzimidazol-2-amine] |
| 50 to 250 | CNc1ncc(-c2ccc3c(c2)CN(c2ncnc4c2CC(C)(C)CC4)CCO3)cc1NS(C)(=O)=O [Example 627, N-{5-[4-(6,6-dimethyl-5,6,7,8-tetrahydroquinazolin-4-yl)-2,3,4,5-tetrahydro-1,4-benzoxazepin-7-yl]-2-(methylamino)pyridin-3-yl}methanesulfonamide] |
| ≤ 10 | Cc1nc2cc(-c3ccc4c(c3)CN(c3nc(CF)nc5c3CC(C)(C)CC5)CCO4)ccc2[nH]1 [Example 676, 4-[2-(fluoromethyl)-6,6-dimethyl-5,6,7,8-tetrahydroquinazolin-4-yl]-7-(2-methyl-1H-benzimidazol-5-yl)-2,3,4,5-tetrahydro-1,4-benzoxazepine] |
| 250 to 1000 | CCNc1ncnc(N2CCOc3ccc(-c4cnc5nc(C)[nH]c5c4)cc3C2)c1C [Example 639, N-ethyl-5-methyl-6-[7-(2-methyl-1H-imidazo[4,5-b]pyridin-6-yl)-2,3-dihydro-1,4-benzoxazepin-4(5H)-yl]pyrimidin-4-amine] |
